Data on 3 compounds can be found in ChEMBL document CHEMBL1201862, “PubChem BioAssay data set” (2004).

For one test, the target named is Mu-type opioid receptor (Homo sapiens, UniProt P35372). Kind of test: Counterscreen for agonists of heterodimerization of the mu 1 (OPRM1) and delta 1 (OPRD1) opioid receptors: Luminescence-based cell-based high throughput dose response assay to identify agonists of OPRM1 homodimerization. It counts as functional.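 Further: U2OS cells expressing OPRM1 and beta-arrestin as split beta-galactosidase partners.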
The target in test [1] is Ras and Rab interactor 1/Tyrosine-protein kinase ABL1 (Homo sapiens, UniProt P00519+Q13671). It counts as functional.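 Further: biochemical TR-FRET dose-response test measuring inhibition of binding between Rin1 and Abl proteins.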
For a further test, the target named is T1, Caspase-6 (Homo sapiens, UniProt P55212).
T1 sequence (P55212 whole entry): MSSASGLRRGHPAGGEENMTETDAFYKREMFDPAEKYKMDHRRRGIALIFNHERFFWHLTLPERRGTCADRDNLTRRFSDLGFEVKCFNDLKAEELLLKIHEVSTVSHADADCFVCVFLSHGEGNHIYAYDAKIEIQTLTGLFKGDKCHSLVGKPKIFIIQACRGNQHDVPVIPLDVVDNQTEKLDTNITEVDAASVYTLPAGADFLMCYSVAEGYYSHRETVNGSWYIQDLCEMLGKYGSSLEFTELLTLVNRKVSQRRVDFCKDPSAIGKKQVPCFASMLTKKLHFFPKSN
Kind of test: human caspase-6 inhibitors, dose response, biochemical, VEID-R110 fluorescence, cherry-pick (AID 720632).

Another test has as its target Caspase-9 (Homo sapiens, UniProt P55211). Kind of test: caspase-9 enzyme inhibition, dose response, selectivity assay for caspase-6 inhibitor project, biochemical, fluorescence, plate reader, cherry-picked samples (AID 743293).
The target in test [2] is T2, Tyrosyl-DNA phosphodiesterase 2 (Homo sapiens, UniProt O95551).
T2 sequence (O95551 whole entry): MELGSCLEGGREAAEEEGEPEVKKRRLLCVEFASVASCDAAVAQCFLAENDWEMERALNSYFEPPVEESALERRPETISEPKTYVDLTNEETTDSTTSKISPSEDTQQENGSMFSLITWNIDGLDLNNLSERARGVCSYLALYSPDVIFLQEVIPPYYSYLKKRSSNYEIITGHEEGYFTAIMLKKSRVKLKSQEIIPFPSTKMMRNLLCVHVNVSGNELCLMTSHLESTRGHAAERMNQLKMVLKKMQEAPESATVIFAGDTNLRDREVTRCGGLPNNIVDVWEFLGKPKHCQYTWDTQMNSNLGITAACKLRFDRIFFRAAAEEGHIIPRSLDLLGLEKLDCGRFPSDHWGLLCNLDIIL
Kind of test: human TDP2 enzyme inhibitors, dose response, biochemical, epi absorbance, IC50 (AID 743297).

A further test has as its target Caspase-8 (Homo sapiens, UniProt Q14790). Kind of test: caspase-8 inhibition counter-screen, dose response, selectivity assay for caspase-6 inhibitor project, biochemical, Z-IETD-R110 fluorescence, cherry-picked samples (AID 743294).
Test [3] deals with T3, Protein kinase C zeta type (Homo sapiens, UniProt Q05513).
T3 sequence (Q05513 whole entry): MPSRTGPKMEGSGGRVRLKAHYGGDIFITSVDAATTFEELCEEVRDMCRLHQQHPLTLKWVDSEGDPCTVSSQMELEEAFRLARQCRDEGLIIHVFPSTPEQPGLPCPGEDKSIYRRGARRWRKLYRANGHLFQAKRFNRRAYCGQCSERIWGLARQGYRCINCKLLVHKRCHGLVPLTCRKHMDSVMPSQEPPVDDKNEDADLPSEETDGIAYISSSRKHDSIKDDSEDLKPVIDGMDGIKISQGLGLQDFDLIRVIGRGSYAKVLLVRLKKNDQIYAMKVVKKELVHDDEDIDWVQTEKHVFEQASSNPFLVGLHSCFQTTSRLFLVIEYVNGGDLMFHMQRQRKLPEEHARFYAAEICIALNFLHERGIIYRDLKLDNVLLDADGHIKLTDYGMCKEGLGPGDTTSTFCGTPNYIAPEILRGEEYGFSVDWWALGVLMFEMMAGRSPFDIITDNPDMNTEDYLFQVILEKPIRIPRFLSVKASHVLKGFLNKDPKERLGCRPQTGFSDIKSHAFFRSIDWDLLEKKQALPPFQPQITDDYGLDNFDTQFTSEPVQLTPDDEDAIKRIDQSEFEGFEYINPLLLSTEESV
It counts as functional.

For test [4], the target named is Cell division cycle 7-related protein kinase (Homo sapiens, UniProt O00311). In kind it is functional.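 Further: value obtained from a kinome-wide kinase panel.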
Test [5] deals with Serine/threonine-protein kinase PAK 1 (Homo sapiens, UniProt Q13153). It counts as functional.
Test [6] addresses Fibroblast growth factor receptor 1 (Homo sapiens, UniProt P11362). It counts as functional.
Test [7] has as its target Hepatocyte growth factor receptor (Homo sapiens, UniProt P08581). It counts as functional.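 Further: kinase panel profiling across the kinome, with MET as the panel member.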
In test [8] the target is 3-phosphoinositide-dependent protein kinase 1 (Homo sapiens, UniProt O15530). In kind it is functional.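 Further: value comes from the Navigating the Kinome panel, PDPK1 member.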
Test [9] deals with STE20-like serine/threonine-protein kinase (Homo sapiens, UniProt Q9H2G2). In kind it is functional.
In test [10] the target is Glycogen synthase kinase-3 beta (Homo sapiens, UniProt P49841). In kind it is functional.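 Further: value comes from a broad kinome profiling panel, with GSK3B as the panel member.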
In test [11] the target is Receptor tyrosine-protein kinase erbB-4 (Homo sapiens, UniProt Q15303). In kind it is functional.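 Further: ERBB4 member of a kinome-wide kinase profiling panel.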
For test [12], the target named is Dual specificity tyrosine-phosphorylation-regulated kinase 1A (Homo sapiens, UniProt Q13627). In kind it is functional.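 Further: measured against DYRK1A as one member of a broad kinome profiling panel.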

Activity calls are given as the source filed them.

Chain of 3-phosphoinositide-dependent protein kinase 1 (O15530 whole entry): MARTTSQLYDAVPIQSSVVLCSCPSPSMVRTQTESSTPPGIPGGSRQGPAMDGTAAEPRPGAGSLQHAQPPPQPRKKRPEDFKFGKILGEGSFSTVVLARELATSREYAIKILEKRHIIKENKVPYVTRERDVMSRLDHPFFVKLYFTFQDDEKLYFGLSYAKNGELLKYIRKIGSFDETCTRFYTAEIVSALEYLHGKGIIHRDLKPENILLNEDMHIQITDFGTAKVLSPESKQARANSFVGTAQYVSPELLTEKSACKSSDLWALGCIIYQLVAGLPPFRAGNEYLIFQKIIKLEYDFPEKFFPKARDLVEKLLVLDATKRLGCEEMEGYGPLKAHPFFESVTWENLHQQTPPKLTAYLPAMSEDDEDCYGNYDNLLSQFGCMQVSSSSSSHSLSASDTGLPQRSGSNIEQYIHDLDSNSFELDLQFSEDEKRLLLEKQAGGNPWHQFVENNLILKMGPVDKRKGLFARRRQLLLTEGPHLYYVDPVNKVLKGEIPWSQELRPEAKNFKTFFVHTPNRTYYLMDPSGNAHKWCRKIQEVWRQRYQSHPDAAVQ
Chain of Serine/threonine-protein kinase PAK 1 (Q13153 whole entry): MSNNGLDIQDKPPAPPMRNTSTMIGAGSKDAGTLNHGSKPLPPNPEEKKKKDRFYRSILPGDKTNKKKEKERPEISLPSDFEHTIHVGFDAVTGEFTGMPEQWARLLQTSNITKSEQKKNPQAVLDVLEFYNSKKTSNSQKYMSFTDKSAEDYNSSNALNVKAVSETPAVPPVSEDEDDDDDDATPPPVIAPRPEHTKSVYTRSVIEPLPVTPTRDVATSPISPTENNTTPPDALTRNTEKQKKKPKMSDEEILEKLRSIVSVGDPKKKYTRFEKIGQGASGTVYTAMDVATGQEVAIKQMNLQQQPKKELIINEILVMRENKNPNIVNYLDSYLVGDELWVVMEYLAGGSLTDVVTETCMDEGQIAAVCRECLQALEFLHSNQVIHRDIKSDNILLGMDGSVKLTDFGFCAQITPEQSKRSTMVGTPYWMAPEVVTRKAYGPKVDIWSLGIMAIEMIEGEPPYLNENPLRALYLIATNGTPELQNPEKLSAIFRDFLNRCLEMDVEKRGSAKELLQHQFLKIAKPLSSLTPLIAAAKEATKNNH
Chain of Caspase-9 (P55211 1-315 limits assumed): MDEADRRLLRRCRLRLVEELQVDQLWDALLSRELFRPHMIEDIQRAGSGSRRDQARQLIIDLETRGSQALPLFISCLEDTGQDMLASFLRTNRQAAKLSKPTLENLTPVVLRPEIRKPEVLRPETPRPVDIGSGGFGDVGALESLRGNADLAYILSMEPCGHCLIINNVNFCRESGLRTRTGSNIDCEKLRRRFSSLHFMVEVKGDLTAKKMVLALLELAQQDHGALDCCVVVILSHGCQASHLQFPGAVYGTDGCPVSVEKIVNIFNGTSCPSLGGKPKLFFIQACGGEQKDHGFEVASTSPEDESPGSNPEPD
Chain of Caspase-9 (P55211 331-416 limits assumed): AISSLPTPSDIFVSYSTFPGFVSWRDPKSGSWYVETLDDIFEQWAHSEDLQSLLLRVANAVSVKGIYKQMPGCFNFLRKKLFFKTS
Chain of Mu-type opioid receptor (P35372 whole entry): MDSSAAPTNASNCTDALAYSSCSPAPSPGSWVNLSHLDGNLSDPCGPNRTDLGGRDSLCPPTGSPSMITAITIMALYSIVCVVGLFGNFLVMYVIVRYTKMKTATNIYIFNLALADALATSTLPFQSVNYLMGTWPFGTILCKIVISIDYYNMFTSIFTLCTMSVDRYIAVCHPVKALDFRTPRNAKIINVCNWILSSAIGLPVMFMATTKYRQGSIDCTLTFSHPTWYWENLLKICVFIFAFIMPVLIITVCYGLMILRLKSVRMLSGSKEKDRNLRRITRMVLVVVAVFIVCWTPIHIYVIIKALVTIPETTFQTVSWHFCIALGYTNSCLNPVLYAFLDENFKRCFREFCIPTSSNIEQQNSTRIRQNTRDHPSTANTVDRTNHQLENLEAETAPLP
Chain of Receptor tyrosine-protein kinase erbB-4 (Q15303 whole entry): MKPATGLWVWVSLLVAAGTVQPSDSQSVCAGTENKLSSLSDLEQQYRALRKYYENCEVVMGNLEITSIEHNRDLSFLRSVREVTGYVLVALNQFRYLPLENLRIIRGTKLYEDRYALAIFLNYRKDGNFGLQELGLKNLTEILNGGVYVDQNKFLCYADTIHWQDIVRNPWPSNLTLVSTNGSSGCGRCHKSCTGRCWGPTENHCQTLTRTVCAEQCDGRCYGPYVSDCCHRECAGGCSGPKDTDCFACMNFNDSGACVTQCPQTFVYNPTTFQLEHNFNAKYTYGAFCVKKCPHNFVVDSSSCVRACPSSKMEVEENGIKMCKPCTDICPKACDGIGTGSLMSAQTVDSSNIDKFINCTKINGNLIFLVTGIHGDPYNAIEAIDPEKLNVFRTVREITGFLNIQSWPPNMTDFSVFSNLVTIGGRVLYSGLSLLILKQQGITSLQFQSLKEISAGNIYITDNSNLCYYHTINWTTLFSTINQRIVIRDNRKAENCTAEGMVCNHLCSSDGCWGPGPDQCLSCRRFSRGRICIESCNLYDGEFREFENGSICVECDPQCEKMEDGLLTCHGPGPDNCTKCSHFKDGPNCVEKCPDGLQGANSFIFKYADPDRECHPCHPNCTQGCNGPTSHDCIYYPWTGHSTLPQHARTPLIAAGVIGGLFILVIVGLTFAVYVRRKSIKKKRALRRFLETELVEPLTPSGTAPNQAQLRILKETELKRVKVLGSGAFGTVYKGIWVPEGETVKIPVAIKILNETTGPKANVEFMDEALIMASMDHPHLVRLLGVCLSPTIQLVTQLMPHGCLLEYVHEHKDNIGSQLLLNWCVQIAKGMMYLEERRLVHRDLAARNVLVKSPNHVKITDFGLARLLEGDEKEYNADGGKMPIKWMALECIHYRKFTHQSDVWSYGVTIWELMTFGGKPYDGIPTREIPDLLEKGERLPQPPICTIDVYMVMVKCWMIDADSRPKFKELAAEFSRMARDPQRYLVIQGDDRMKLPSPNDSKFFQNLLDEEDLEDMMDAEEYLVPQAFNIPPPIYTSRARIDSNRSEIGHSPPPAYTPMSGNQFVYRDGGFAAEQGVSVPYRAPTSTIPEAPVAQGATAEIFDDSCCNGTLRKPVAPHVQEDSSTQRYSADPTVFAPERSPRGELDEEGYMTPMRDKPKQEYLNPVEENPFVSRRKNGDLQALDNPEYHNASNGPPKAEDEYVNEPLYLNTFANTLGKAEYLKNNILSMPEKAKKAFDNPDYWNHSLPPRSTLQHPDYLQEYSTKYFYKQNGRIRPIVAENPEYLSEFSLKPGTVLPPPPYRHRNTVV
Chain of Fibroblast growth factor receptor 1 (P11362 whole entry): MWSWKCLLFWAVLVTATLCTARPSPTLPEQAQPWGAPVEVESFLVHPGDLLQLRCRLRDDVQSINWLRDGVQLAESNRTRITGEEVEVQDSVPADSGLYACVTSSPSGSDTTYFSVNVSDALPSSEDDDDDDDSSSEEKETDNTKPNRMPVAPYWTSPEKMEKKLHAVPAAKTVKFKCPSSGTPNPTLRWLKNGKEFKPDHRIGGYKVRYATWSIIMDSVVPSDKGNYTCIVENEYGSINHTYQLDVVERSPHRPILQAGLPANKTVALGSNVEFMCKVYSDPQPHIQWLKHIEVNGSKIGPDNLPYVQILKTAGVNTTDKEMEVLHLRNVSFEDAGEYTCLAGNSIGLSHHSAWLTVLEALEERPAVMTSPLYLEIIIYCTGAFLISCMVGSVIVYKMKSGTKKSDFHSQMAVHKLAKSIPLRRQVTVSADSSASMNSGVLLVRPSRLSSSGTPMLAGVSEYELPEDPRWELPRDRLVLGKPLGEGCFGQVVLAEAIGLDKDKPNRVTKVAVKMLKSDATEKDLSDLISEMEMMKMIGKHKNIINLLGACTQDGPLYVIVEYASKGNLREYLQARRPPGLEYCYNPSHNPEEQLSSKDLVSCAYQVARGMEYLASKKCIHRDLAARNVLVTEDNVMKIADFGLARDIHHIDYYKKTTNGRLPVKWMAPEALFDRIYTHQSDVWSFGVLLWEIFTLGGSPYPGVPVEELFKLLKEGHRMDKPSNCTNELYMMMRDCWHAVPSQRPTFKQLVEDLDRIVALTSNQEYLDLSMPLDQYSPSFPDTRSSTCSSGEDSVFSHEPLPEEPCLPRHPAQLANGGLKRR
Chain of Caspase-8 (Q14790 217-374 limits assumed): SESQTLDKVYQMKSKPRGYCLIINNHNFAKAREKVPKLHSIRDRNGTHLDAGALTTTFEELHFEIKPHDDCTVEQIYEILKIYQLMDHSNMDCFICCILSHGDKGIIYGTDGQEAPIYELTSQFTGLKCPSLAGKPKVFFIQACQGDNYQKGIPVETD
Chain of Caspase-8 (Q14790 385-479 limits assumed): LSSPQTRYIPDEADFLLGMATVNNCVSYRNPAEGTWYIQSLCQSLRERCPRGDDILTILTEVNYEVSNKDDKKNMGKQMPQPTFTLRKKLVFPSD
Chain of Cell division cycle 7-related protein kinase (O00311 whole entry): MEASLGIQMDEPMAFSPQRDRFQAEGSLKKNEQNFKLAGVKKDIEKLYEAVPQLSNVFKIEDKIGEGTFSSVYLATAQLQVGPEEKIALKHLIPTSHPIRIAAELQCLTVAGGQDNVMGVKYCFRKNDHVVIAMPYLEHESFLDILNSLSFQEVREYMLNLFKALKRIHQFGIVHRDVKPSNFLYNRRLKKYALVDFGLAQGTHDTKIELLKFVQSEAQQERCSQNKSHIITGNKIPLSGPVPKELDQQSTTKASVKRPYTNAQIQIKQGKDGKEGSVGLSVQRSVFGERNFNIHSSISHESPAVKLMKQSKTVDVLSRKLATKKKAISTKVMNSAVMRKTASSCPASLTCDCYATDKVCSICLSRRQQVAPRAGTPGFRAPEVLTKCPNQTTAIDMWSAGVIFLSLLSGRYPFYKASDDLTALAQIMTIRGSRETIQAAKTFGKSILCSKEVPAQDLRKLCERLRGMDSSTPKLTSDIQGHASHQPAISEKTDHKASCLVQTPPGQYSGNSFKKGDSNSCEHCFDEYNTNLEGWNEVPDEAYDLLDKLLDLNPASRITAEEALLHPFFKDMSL

For orientation: EC50 means the concentration that produces a half-maximal response. As a reminder, the IC50 is the concentration at which inhibition is half-maximal. A word on the AC50: it is the concentration at which the activity in the assay is half-maximal. With `CCCc1nc2c(=O)n(C)c(=O)nc-2n(C)n1`, the EC50 at Mu-type opioid receptor was > 92.5 µM (inactive). Further, the values for the IC50 in test [1] and in [2] were 0.527 µM (active) and 0.161 µM (active), respectively. Also, the half-maximal activity concentration (AC50) at Caspase-6 is 0.0636 µM (active); at Caspase-9, 0.214 µM (active); at Caspase-8, 0.31 µM (active).

For `CC(=O)c1ccc(NC2=C(N3CCOCC3)C(=O)c3ccccc3C2=O)cc1`, in [2], the IC50 is > 128 µM (inactive).

By Ki is commonly meant the dissociation constant of the complex between target and ligand, obtained from inhibition or displacement. Consider `COc1cc2ncn(-c3cc(OCc4ccccc4C(F)(F)F)c(C(N)=O)s3)c2cc1OC` [GW843682X], for which the Ki in test [3] is > 7.94 µM (inactive); in [4] it was > 1.26 µM (inactive); in [5] it was > 10 µM (inactive); in [6], 3.98 µM (active); in [7], > 3.16 µM (inactive); in test [8], > 3.98 µM (inactive). The Ki in test [9] was 0.0126 µM (active); in test [10], 2 µM (active); in [11], > 3.98 µM (inactive); in test [12] it was 5.01 µM (active).
